# Measurements taken from ChEMBL document CHEMBL6092154, “Design, synthesis, and evaluation of a novel TRAIL-activated HDAC6 inhibitor for the treatment of pulmonary fibrosis” (Bioorg Med Chem, 2024).
# System: NIH3T3
# Test: Antiproliferative activity against mouse NIH/3T3 cells assessed as inhibition of cell growth incubated for 24 to 48 hrs by CCK8 assay
# Format: functional, cell-based
row,Compound,IC50 [µM]
1,O=C(NO)c1ccc(CN2C(=O)C3=C(CCN(Cc4cccc(Br)c4)C3)N3CCN=C23)cc1,0.1
2,O=C(NO)c1ccc(CN2C(=O)C3=C(CCN(Cc4cccc(C(F)(F)F)c4Cl)C3)N3CCN=C23)cc1,6.71
3,Cc1ccccc1CN1CCC2=C(C1)C(=O)N(Cc1ccc(C(=O)NO)cc1)C1=NCCN12,5.9
4,Cc1ccc(CN2CCC3=C(C2)C(=O)N(Cc2ccc(C(=O)NO)cc2)C2=NCCN23)cc1,1.63
5,COc1cccc(CN2CCC3=C(C2)C(=O)N(Cc2ccc(C(=O)NO)cc2)C2=NCCN23)c1,11.4

# System: RPMI-8226
# Test: Antiproliferative activity against human RPMI-8226 cells assessed as inhibition of cell growth incubated for 24 to 48 hrs by CCK8 assay
# Format: functional, cell-based
row,IC50 [µM],Compound
1,1.86,O=C(NO)c1ccc(CN2C(=O)C3=C(CCN(Cc4cccc(Br)c4)C3)N3CCN=C23)cc1
2,49.4,O=C(NO)c1ccc(CN2C(=O)C3=C(CCN(Cc4cccc(C(F)(F)F)c4Cl)C3)N3CCN=C23)cc1
3,10.7,Cc1ccccc1CN1CCC2=C(C1)C(=O)N(Cc1ccc(C(=O)NO)cc1)C1=NCCN12
4,13.3,Cc1ccc(CN2CCC3=C(C2)C(=O)N(Cc2ccc(C(=O)NO)cc2)C2=NCCN23)cc1
5,0.1,COc1cccc(CN2CCC3=C(C2)C(=O)N(Cc2ccc(C(=O)NO)cc2)C2=NCCN23)c1

# Molecular target: T1, Protein deacetylase HDAC6 (Homo sapiens, UniProt Q9UBN7)
# T1 sequence (Q9UBN7 whole entry): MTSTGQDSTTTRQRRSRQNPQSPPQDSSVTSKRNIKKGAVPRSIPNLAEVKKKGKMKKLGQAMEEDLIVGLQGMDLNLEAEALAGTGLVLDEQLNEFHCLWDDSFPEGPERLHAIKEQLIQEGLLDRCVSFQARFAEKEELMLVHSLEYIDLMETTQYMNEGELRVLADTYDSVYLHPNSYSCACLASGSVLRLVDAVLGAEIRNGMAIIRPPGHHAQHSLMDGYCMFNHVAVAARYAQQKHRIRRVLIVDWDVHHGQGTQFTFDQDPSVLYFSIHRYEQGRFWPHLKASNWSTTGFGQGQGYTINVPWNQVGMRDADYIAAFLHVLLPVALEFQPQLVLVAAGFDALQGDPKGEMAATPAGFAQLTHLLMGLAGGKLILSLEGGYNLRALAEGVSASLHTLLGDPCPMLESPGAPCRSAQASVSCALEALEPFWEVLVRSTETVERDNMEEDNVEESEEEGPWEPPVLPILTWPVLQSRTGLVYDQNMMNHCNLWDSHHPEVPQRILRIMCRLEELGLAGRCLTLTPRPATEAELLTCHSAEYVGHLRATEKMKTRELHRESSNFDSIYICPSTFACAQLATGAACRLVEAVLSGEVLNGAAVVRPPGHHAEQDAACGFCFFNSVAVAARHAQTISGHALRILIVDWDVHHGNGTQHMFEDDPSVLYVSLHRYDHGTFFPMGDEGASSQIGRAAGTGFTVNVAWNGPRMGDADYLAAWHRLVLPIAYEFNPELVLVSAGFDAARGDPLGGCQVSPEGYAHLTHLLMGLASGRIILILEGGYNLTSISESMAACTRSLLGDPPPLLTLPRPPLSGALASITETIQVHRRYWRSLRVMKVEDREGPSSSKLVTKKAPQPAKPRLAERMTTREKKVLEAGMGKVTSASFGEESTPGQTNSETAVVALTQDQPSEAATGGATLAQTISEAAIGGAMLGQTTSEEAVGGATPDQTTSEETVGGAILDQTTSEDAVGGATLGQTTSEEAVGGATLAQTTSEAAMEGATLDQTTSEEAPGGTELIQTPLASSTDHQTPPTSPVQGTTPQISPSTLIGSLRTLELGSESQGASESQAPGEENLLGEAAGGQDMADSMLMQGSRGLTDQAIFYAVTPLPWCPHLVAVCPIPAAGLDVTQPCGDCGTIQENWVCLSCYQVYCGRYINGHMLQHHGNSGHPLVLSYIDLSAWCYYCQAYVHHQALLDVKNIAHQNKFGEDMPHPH
# Test: Inhibition of HDAC6 (unknown origin) incubated for 30 mins by fluorometric analysis
row,IC50 [µM],Compound
1,0.0315,O=C(NO)c1ccc(CN2C(=O)C3=C(CCN(Cc4cccc(Br)c4)C3)N3CCN=C23)cc1
2,0.0601,O=C(NO)c1ccc(CN2C(=O)C3=C(CCN(Cc4cccc(C(F)(F)F)c4Cl)C3)N3CCN=C23)cc1
3,0.048,Cc1ccccc1CN1CCC2=C(C1)C(=O)N(Cc1ccc(C(=O)NO)cc1)C1=NCCN12
4,0.0509,Cc1ccc(CN2CCC3=C(C2)C(=O)N(Cc2ccc(C(=O)NO)cc2)C2=NCCN23)cc1
5,0.104,COc1cccc(CN2CCC3=C(C2)C(=O)N(Cc2ccc(C(=O)NO)cc2)C2=NCCN23)c1

# Molecular target: Histone deacetylase 1 (Homo sapiens) (UniProt Q13547)
# Test: Inhibition of HDAC1 (unknown origin) at 1 uM incubated for 30 mins by fluorometric analysis
# Chain of Histone deacetylase 1 (Homo sapiens) (Q13547 whole entry): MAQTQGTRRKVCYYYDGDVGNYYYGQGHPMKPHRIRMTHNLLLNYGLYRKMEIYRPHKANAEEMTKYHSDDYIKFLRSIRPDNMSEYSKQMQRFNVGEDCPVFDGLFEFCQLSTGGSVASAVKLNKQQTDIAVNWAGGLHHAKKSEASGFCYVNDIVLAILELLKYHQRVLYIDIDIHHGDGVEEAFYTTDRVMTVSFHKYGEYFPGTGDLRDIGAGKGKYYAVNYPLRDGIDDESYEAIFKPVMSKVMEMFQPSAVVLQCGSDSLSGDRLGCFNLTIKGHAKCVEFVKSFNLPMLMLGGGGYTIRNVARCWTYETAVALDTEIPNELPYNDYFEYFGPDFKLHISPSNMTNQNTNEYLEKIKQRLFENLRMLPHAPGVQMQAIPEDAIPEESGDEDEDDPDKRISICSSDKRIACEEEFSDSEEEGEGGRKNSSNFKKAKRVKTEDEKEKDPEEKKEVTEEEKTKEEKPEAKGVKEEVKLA
row,inhibition [%],Compound
1,36.4,O=C(NO)c1ccc(CN2C(=O)C3=C(CCN(Cc4cccc(Br)c4)C3)N3CCN=C23)cc1
2,18.3,O=C(NO)c1ccc(CN2C(=O)C3=C(CCN(Cc4cccc(C(F)(F)F)c4Cl)C3)N3CCN=C23)cc1
3,32.4,Cc1ccccc1CN1CCC2=C(C1)C(=O)N(Cc1ccc(C(=O)NO)cc1)C1=NCCN12
4,31.8,Cc1ccc(CN2CCC3=C(C2)C(=O)N(Cc2ccc(C(=O)NO)cc2)C2=NCCN23)cc1
5,59.3,COc1cccc(CN2CCC3=C(C2)C(=O)N(Cc2ccc(C(=O)NO)cc2)C2=NCCN23)c1

# Molecular target: T2, Protein deacetylase HDAC6 (Homo sapiens) (UniProt Q9UBN7)
# T2 sequence (whole entry): T1 sequence (Q9UBN7 whole entry)
# Test: Inhibition of HDAC6 (unknown origin) at 1 uM incubated for 30 mins by fluorometric analysis
row,inhibition [%],Compound
1,93.6,O=C(NO)c1ccc(CN2C(=O)C3=C(CCN(Cc4cccc(Br)c4)C3)N3CCN=C23)cc1
2,94.1,O=C(NO)c1ccc(CN2C(=O)C3=C(CCN(Cc4cccc(C(F)(F)F)c4Cl)C3)N3CCN=C23)cc1
3,94.7,Cc1ccccc1CN1CCC2=C(C1)C(=O)N(Cc1ccc(C(=O)NO)cc1)C1=NCCN12
4,91.3,Cc1ccc(CN2CCC3=C(C2)C(=O)N(Cc2ccc(C(=O)NO)cc2)C2=NCCN23)cc1
5,95.4,COc1cccc(CN2CCC3=C(C2)C(=O)N(Cc2ccc(C(=O)NO)cc2)C2=NCCN23)c1

# Molecular target: T3, Histone deacetylase 8 (Homo sapiens) (UniProt Q9BY41)
# T3 sequence (whole entry): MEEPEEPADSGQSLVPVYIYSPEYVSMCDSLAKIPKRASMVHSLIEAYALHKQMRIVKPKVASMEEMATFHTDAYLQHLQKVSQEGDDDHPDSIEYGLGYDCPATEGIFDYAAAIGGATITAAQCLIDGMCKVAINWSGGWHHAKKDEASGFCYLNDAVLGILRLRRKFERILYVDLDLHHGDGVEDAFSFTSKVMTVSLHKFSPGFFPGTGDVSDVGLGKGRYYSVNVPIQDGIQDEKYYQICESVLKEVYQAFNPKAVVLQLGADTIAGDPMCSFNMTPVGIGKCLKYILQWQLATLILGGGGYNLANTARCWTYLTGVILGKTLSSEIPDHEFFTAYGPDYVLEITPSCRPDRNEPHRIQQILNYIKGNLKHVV
# Test: Inhibition of HDAC8 (unknown origin) at 1 uM incubated for 30 mins by fluorometric analysis
row,inhibition [%],Compound
1,76,O=C(NO)c1ccc(CN2C(=O)C3=C(CCN(Cc4cccc(Br)c4)C3)N3CCN=C23)cc1
2,31,O=C(NO)c1ccc(CN2C(=O)C3=C(CCN(Cc4cccc(C(F)(F)F)c4Cl)C3)N3CCN=C23)cc1
3,69.8,Cc1ccccc1CN1CCC2=C(C1)C(=O)N(Cc1ccc(C(=O)NO)cc1)C1=NCCN12
4,63.6,Cc1ccc(CN2CCC3=C(C2)C(=O)N(Cc2ccc(C(=O)NO)cc2)C2=NCCN23)cc1
5,72.2,COc1cccc(CN2CCC3=C(C2)C(=O)N(Cc2ccc(C(=O)NO)cc2)C2=NCCN23)c1

# Molecular target: Histone deacetylase 2 (Homo sapiens, UniProt Q92769)
# Test: Inhibition of HDAC2 (unknown origin) at 1 uM incubated for 30 mins by fluorometric analysis
# Chain of Histone deacetylase 2 (Q92769 whole entry): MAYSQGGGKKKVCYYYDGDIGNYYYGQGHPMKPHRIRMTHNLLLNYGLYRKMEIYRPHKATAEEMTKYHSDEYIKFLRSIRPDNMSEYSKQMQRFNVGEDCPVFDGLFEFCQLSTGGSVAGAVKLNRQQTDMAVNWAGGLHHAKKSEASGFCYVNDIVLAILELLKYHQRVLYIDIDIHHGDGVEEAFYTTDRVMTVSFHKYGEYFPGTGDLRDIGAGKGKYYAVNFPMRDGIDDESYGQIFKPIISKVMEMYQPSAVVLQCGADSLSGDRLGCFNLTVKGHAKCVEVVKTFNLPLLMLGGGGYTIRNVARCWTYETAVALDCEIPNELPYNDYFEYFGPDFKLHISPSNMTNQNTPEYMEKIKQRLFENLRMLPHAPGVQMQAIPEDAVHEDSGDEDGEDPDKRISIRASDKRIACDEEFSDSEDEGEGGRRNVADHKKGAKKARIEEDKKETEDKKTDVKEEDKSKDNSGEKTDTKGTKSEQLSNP
row,inhibition [%],Compound
1,63.9,O=C(NO)c1ccc(CN2C(=O)C3=C(CCN(Cc4cccc(Br)c4)C3)N3CCN=C23)cc1
2,60.8,O=C(NO)c1ccc(CN2C(=O)C3=C(CCN(Cc4cccc(C(F)(F)F)c4Cl)C3)N3CCN=C23)cc1
3,60.5,Cc1ccccc1CN1CCC2=C(C1)C(=O)N(Cc1ccc(C(=O)NO)cc1)C1=NCCN12
4,58.4,Cc1ccc(CN2CCC3=C(C2)C(=O)N(Cc2ccc(C(=O)NO)cc2)C2=NCCN23)cc1
5,57.6,COc1cccc(CN2CCC3=C(C2)C(=O)N(Cc2ccc(C(=O)NO)cc2)C2=NCCN23)c1

# System: Fibroblast
# Test: Antiproliferative activity against human primary fibroblasts assessed as inhibition of cell growth incubated for 24 to 48 hrs by CCK8 assay
# Format: functional, cell-based
row,Compound,IC50 [µM]
1,O=C(NO)c1ccc(CN2C(=O)C3=C(CCN(Cc4cccc(Br)c4)C3)N3CCN=C23)cc1,47.4
2,O=C(NO)c1ccc(CN2C(=O)C3=C(CCN(Cc4cccc(C(F)(F)F)c4Cl)C3)N3CCN=C23)cc1,111
3,Cc1ccccc1CN1CCC2=C(C1)C(=O)N(Cc1ccc(C(=O)NO)cc1)C1=NCCN12,59.2
4,Cc1ccc(CN2CCC3=C(C2)C(=O)N(Cc2ccc(C(=O)NO)cc2)C2=NCCN23)cc1,136
5,COc1cccc(CN2CCC3=C(C2)C(=O)N(Cc2ccc(C(=O)NO)cc2)C2=NCCN23)c1,55.1

# Molecular target: Histone deacetylase 3 (Homo sapiens, UniProt O15379)
# Test: Inhibition of HDAC3 (unknown origin) at 1 uM incubated for 30 mins by fluorometric analysis
# Chain of Histone deacetylase 3 (O15379 whole entry): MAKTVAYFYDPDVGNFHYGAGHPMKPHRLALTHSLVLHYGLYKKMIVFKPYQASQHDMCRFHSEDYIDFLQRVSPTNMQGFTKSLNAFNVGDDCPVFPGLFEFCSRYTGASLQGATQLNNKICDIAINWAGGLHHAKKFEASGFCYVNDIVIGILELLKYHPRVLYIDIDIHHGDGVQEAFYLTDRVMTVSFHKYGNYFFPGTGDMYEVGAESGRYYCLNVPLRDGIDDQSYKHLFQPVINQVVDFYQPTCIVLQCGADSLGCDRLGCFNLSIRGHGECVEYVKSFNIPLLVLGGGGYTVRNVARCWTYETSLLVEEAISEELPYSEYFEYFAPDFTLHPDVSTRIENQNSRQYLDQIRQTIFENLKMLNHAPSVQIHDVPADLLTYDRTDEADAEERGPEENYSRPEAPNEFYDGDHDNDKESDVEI
row,inhibition [%],Compound
1,56.6,O=C(NO)c1ccc(CN2C(=O)C3=C(CCN(Cc4cccc(Br)c4)C3)N3CCN=C23)cc1
2,52.7,O=C(NO)c1ccc(CN2C(=O)C3=C(CCN(Cc4cccc(C(F)(F)F)c4Cl)C3)N3CCN=C23)cc1
3,51.2,Cc1ccccc1CN1CCC2=C(C1)C(=O)N(Cc1ccc(C(=O)NO)cc1)C1=NCCN12
4,53.1,Cc1ccc(CN2CCC3=C(C2)C(=O)N(Cc2ccc(C(=O)NO)cc2)C2=NCCN23)cc1
5,52.3,COc1cccc(CN2CCC3=C(C2)C(=O)N(Cc2ccc(C(=O)NO)cc2)C2=NCCN23)c1
